Key:
Test in all cases: drug sensitivity score (DSS) from 5-dose viability curve (DSS (area-based score, 0 = no response)); higher = more sensitive (stronger viability inhibition); extreme values may be limits of the assay
[1] = test system: MDCK wild-type + doxycycline; details: doxycycline: 10 ng/mL; 72 h
In short: (§1)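 Parental MDCK cells and MDCK cells with doxycycline-inducible p60AmotL2, both given doxycycline at 10 ng/mL in the medium before plating, were dispensed at 2000 cells/well onto pre-spotted 384-well plates. The plates held an oncology library of 528 drugs at five doses (1-10,000 nM) and were incubated 72 h at 37 °C. Viability was read as CellTiter-Glo luminescence and scaled per plate between vehicle and positive controls. Drug sensitivity scores came from dose-response curve fits in the Breeze pipeline.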

[2] = test system: MDCK p60AmotL2-inducible + doxycycline (p60AmotL2 expressing); details: doxycycline: 10 ng/mL; 72 h
In short: as §1

[3] = test system: MDCK wild-type - doxycycline; details: doxycycline: none; 72 h
In short: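 Viability of parental MDCK cells cultured without doxycycline was measured by CellTiter-Glo luminescence and scaled per plate between vehicle and positive controls. The cells had been exposed for 72 h to an oncology library of 528 drugs at five doses (1-10,000 nM). Drug sensitivity scores were calculated from dose-response curve fits in the Breeze pipeline.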

Compound: COc1ncc(-c2ccc3nccc(-c4ccnnc4)c3c2)cc1NS(=O)(=O)c1ccc(F)cc1F [Omipalisib]
- drug sensitivity score [1]: 14.2
- drug sensitivity score [2]: 20.2
- drug sensitivity score [3]: 14.5

Compound: Cc1ccc(C(=O)Nc2ccc(Oc3cc4cnn(C)c4cc3-c3cn[nH]c3)c(F)c2)c(=O)n1-c1ccc(F)cc1 [Merestinib]
- drug sensitivity score [1]: 0
- drug sensitivity score [2]: 0
- drug sensitivity score [3]: 0.9

Compound: Cn1cc(C2=Nc3cc(NC(=O)C(N)C4CCCCC4)cc4c3C2=CNNC4=O)cn1 (stereo not given)
- drug sensitivity score [1]: 0
- drug sensitivity score [2]: 1.1
- drug sensitivity score [3]: 0

Compound: CCn1c(C(=O)N(C2CC2)C2CC2)cc2c3c(ncn3C)c(Nc3cc(C)n(C)n3)nc21
- drug sensitivity score [1]: 0
- drug sensitivity score [2]: 0
- drug sensitivity score [3]: 0

Compound: CN1CCC(CNc2ccc3ncc(-c4cccc(OC(F)(F)F)c4)n3n2)CC1 [SGI-1776]
- drug sensitivity score [1]: 6.3
- drug sensitivity score [2]: 7.5
- drug sensitivity score [3]: 6.6

Compound: CCNC(=O)CCC/C=C\C[C@@H]1[C@@H](/C=C/[C@@H](O)CCc2ccccc2)[C@H](O)C[C@@H]1O [Bimatoprost]
- drug sensitivity score [1]: 0
- drug sensitivity score [2]: 0
- drug sensitivity score [3]: 0

Compound: C[C@@H](Oc1cc(-n2cnc3ccc(CN4CCN(C)CC4)cc32)sc1C(N)=O)c1ccccc1C(F)(F)F
- drug sensitivity score [1]: 35.1
- drug sensitivity score [2]: 32.1
- drug sensitivity score [3]: 29.5

Compound: CCCCc1nc2cc(/C=C/C(=O)NO)ccc2n1CCN(CC)CC [Pracinostat]
- drug sensitivity score [1]: 15.9
- drug sensitivity score [2]: 17.7
- drug sensitivity score [3]: 15

Compound: Cc1cc(Nc2ncc(Cl)c(Nc3ccccc3S(=O)(=O)C(C)C)n2)c(OC(C)C)cc1C1CCNCC1 [Ceritinib]
- drug sensitivity score [1]: 0.6
- drug sensitivity score [2]: 0
- drug sensitivity score [3]: 0

Compound: NCC(=O)Nc1ccc(-n2nc(C(F)(F)F)cc2-c2ccc3c(ccc4ccccc43)c2)cc1
- drug sensitivity score [1]: 0
- drug sensitivity score [2]: 0
- drug sensitivity score [3]: 0

Compound: Nc1nc(Nc2ccc3c(c2)CC[C@@H](N2CCCC2)CC3)nn1-c1cc2c(nn1)-c1ccccc1CCC2 [BGB324]
- drug sensitivity score [1]: 5
- drug sensitivity score [2]: 5.8
- drug sensitivity score [3]: 5.1

Compound: COc1cc2nccc(Oc3ccc(NC(=O)Nc4cc(C)on4)c(Cl)c3)c2cc1OC [Tivozanib]
- drug sensitivity score [1]: 8.2
- drug sensitivity score [2]: 4.4
- drug sensitivity score [3]: 2.5

Compound: CCNCCS(=O)(=O)NC[C@@]1(c2ccccc2)SC(NC(=O)C(C)(C)C)=NN1C(=O)C(C)(C)C [Litronesib]
- drug sensitivity score [1]: 25.1
- drug sensitivity score [2]: 26.6
- drug sensitivity score [3]: 22

Compound: CCc1cncnc1N1CCN(Cc2nc3ccc(C(F)(F)F)cc3[nH]2)CC1
- drug sensitivity score [1]: 0
- drug sensitivity score [2]: 0
- drug sensitivity score [3]: 0

Compound: CC(C)(C)c1cc(NC(=O)Nc2ccc(-c3cn4c(n3)sc3cc(OCCN5CCOCC5)ccc34)cc2)no1 [Quizartinib]
- drug sensitivity score [1]: 3
- drug sensitivity score [2]: 3.9
- drug sensitivity score [3]: 3.3

Compound: COc1cc(Nc2c(C#N)cnc3cc(OCCCN4CCN(C)CC4)c(OC)cc23)c(Cl)cc1Cl [Bosutinib]
- drug sensitivity score [1]: 10.4
- drug sensitivity score [2]: 14.1
- drug sensitivity score [3]: 7.5

Compound: C=CC(=O)Nc1cc(Nc2nccc(-c3cn(C)c4ccccc34)n2)c(OC)cc1N(C)CCN(C)C [Osimertinib]
- drug sensitivity score [1]: 6.4
- drug sensitivity score [2]: 10.9
- drug sensitivity score [3]: 4.6

Compound: COc1cc(OC)cc(N(CCNC(C)C)c2ccc3ncc(-c4cnn(C)c4)nc3c2)c1 [Erdafitinib]
- drug sensitivity score [1]: 0
- drug sensitivity score [2]: 0
- drug sensitivity score [3]: 0

Compound: CN1CCN(C2CCC(n3cc(-c4ccc(Oc5ccccc5)cc4)c4c(N)ncnc43)CC2)CC1 (stereo not given)
- drug sensitivity score [1]: 9.4
- drug sensitivity score [2]: 14
- drug sensitivity score [3]: 7

Compound: CC(C)NC(=O)COc1cccc(-c2nc(Nc3ccc4[nH]ncc4c3)c3ccccc3n2)c1 [KD025]
- drug sensitivity score [1]: 0
- drug sensitivity score [2]: 0
- drug sensitivity score [3]: 0.8

Compound: CNCc1ccc(-c2[nH]c3cc(F)cc4c3c2CCNC4=O)cc1 [Rucaparib]
- drug sensitivity score [1]: 0
- drug sensitivity score [2]: 0
- drug sensitivity score [3]: 0

Compound: CO[C@H]1C(=O)[C@]2(C)[C@@H](OC)C[C@H]3OC[C@@]3(OC(C)=O)[C@H]2[C@H](OC(=O)c2ccccc2)[C@]2(O)C[C@H](OC(=O)[C@H](O)[C@@H](NC(=O)OC(C)(C)C)c3ccccc3)C(C)=C1C2(C)C [Cabazitaxel]
- drug sensitivity score [1]: 37.7
- drug sensitivity score [2]: 38
- drug sensitivity score [3]: 33.8

Compound: C1=N/C2=N/c3ccc(OCCN4CCCC4)c(c3)COC/C=C/COCc3cccc(c3)C(=C1)N2 [Pacritinib]
- drug sensitivity score [1]: 9.3
- drug sensitivity score [2]: 10
- drug sensitivity score [3]: 10.1

Compound: COc1ccc(CCc2nc3cc(-c4c(C)noc4C)ccc3n2C[C@H](C)N2CCOCC2)cc1Cl [SGC-CBP30]
- drug sensitivity score [1]: 2.7
- drug sensitivity score [2]: 4.3
- drug sensitivity score [3]: 0

Compound: CC[C@H](C)C(=O)O[C@H]1C[C@@H](C)C=C2C=C[C@H](C)[C@H](CC[C@@H]3C[C@@H](O)CC(=O)O3)[C@H]21 [Lovastatin]
- drug sensitivity score [1]: 0
- drug sensitivity score [2]: 0
- drug sensitivity score [3]: 0

Compound: CC(=O)OC[C@H]1O[C@@H]([S-])[C@H](OC(C)=O)[C@@H](OC(C)=O)[C@@H]1OC(C)=O.CCP(CC)CC.[Au+] [Auranofin]
- drug sensitivity score [1]: 4.2
- drug sensitivity score [2]: 4.7
- drug sensitivity score [3]: 4.2

Compound: CN(C)c1cc2c(cc1Sc1nc3c(N)nccc3n1CCNCC(C)(C)C)OCO2 [CUDC-305]
- drug sensitivity score [1]: 17
- drug sensitivity score [2]: 18
- drug sensitivity score [3]: 17.7

Compound: NS(=O)(=O)OC[C@@H]1C[C@@H](n2ccc3c(N[C@H]4CCc5ccccc54)ncnc32)C[C@@H]1O [Pevonedistat]
- drug sensitivity score [1]: 9.7
- drug sensitivity score [2]: 11.7
- drug sensitivity score [3]: 9

Compound: CN(CC(=O)N(Cc1ccc(C2CCCCC2)cc1)c1ccc(C(=O)O)cc1)S(=O)(=O)c1c(F)c(F)c(F)c(F)c1F [SH-4-54]
- drug sensitivity score [1]: 3.9
- drug sensitivity score [2]: 3.7
- drug sensitivity score [3]: 5.1

Compound: CN(C)C(=N)NC(=N)N [Metformin]
- drug sensitivity score [1]: 0
- drug sensitivity score [2]: 0
- drug sensitivity score [3]: 0

Compound: CN(C)CCCOc1ccc(-c2ccc3ncc4c(c3c2)n(C2CCOCC2)c(=O)n4C)cn1 [AZD0156]
- drug sensitivity score [1]: 0
- drug sensitivity score [2]: 1
- drug sensitivity score [3]: 0

Compound: CNC(=O)c1cc(Oc2ccc(NC(=O)Nc3ccc(Cl)c(C(F)(F)F)c3)cc2)ccn1 [Sorafenib]
- drug sensitivity score [1]: 0
- drug sensitivity score [2]: 0
- drug sensitivity score [3]: 0

Compound: CC(C)(C)c1cc(NC(=O)Nc2ccc(Oc3ccnc4[nH]c(=O)cnc34)cc2F)n(-c2ccccc2)n1
- drug sensitivity score [1]: 5.1
- drug sensitivity score [2]: 7
- drug sensitivity score [3]: 4.9

Compound: O=C(Nc1cccnc1)N1CCC(Cc2cccc(Oc3ccc(C(F)(F)F)cn3)c2)CC1 [PF-3845]
- drug sensitivity score [1]: 0
- drug sensitivity score [2]: 0.8
- drug sensitivity score [3]: 0

Compound: CCOc1ccccc1-n1c(C(C)N2CCN(C(=O)COc3ccc(Cl)cc3)CC2)nc2ccccc2c1=O (stereo not given) [Erastin]
- drug sensitivity score [1]: 0
- drug sensitivity score [2]: 0
- drug sensitivity score [3]: 0

Compound: CN1CCN(c2ccc3nc(-c4c(N)c5c(F)cccc5[nH]c4=O)[nH]c3c2)CC1 [Dovitinib]
- drug sensitivity score [1]: 2.5
- drug sensitivity score [2]: 0
- drug sensitivity score [3]: 0

Compound: S=c1[nH]cnc2nc[nH]c12 [Mercaptopurine]
- drug sensitivity score [1]: 1.8
- drug sensitivity score [2]: 1.6
- drug sensitivity score [3]: 2.1

Compound: COC(=O)C[C@](O)(CCCC(C)(C)O)C(=O)O[C@@H]1C(OC)=C[C@]23CCCN2CCc2cc4c(cc2[C@H]13)OCO4 [Omacetaxine]
- drug sensitivity score [1]: 32.4
- drug sensitivity score [2]: 33.6
- drug sensitivity score [3]: 33.5

Compound: Cn1cc(C2=C(c3cn(C4CCN(Cc5ccccn5)CC4)c4ccccc34)C(=O)NC2=O)c2ccccc21 [Enzastaurin]
- drug sensitivity score [1]: 0
- drug sensitivity score [2]: 0
- drug sensitivity score [3]: 0

Compound: CN1CCC(COc2cnc(-c3cccc(Cn4nc(-c5cccc(C#N)c5)ccc4=O)c3)nc2)CC1 [Tepotinib]
- drug sensitivity score [1]: 0
- drug sensitivity score [2]: 0.1
- drug sensitivity score [3]: 0

Compound: CNC(=O)c1cccc2cc(Oc3ccnc4cc(OCC5(N)CC5)c(OC)cc34)ccc12 [Lucitanib]
- drug sensitivity score [1]: 0.7
- drug sensitivity score [2]: 2.6
- drug sensitivity score [3]: 0

Compound: COC(=O)c1ccc([C@H]2c3[nH]c4ccccc4c3C[C@H](C(=O)OC)N2C(=O)CCl)cc1 [RSL3]
- drug sensitivity score [1]: 0
- drug sensitivity score [2]: 0
- drug sensitivity score [3]: 0

Compound: CN(Cc1cnc2nc(N)nc(N)c2n1)c1ccc(C(=O)N[C@@H](CCC(=O)O)C(=O)O)cc1 [Methotrexate]
- drug sensitivity score [1]: 25.8
- drug sensitivity score [2]: 22.5
- drug sensitivity score [3]: 27

Compound: Clc1ccc(C(c2ccccc2Cl)C(Cl)Cl)cc1 (stereo not given) [Mitotane]
- drug sensitivity score [1]: 0
- drug sensitivity score [2]: 0
- drug sensitivity score [3]: 0

Compound: CN[C@@H](C)C(=O)N[C@H]1CN(C(=O)CC(C)C)CC[C@H]2CC[C@@H](C(=O)NC(c3ccccc3)c3ccccc3)N2C1=O [AT-406]
- drug sensitivity score [1]: 0.1
- drug sensitivity score [2]: 0
- drug sensitivity score [3]: 0

— the supplement of paper PMC11003180
